The source made the active and inactive calls. The rule behind the calls is not given here.
Columns and labels:
DNA [1] = test: Binding affinity to calf thymus DNA at 50 uM by Circular dichroism spectra analysis; assay type: nucleic-acid assay; settings: Bos taurus
HeLa = test: Antiproliferative activity against human HeLa cells after 72 hrs by MTT assay; assay type: functional, cell-based; settings: for CC50: read-out: LC50 (the source's name)
[2] = target: DNA topoisomerase 2-alpha (Homo sapiens) (UniProt P11388); test: Inhibition of human topoisomerase 2-mediated supercoiled pUC19 DNA relaxation assessed as formation of open circle form after 45 mins using ethidium bromide staining by agarose gel electrophoresis
[3] = target: T1, DNA topoisomerase 1 (Homo sapiens) (UniProt P11387); test: Inhibition of human topoisomerase 1-mediated supercoiled pUC19 DNA relaxation assessed as formation of open circle form after 45 mins using ethidium bromide staining by agarose gel electrophoresis
T1 sequence (whole entry): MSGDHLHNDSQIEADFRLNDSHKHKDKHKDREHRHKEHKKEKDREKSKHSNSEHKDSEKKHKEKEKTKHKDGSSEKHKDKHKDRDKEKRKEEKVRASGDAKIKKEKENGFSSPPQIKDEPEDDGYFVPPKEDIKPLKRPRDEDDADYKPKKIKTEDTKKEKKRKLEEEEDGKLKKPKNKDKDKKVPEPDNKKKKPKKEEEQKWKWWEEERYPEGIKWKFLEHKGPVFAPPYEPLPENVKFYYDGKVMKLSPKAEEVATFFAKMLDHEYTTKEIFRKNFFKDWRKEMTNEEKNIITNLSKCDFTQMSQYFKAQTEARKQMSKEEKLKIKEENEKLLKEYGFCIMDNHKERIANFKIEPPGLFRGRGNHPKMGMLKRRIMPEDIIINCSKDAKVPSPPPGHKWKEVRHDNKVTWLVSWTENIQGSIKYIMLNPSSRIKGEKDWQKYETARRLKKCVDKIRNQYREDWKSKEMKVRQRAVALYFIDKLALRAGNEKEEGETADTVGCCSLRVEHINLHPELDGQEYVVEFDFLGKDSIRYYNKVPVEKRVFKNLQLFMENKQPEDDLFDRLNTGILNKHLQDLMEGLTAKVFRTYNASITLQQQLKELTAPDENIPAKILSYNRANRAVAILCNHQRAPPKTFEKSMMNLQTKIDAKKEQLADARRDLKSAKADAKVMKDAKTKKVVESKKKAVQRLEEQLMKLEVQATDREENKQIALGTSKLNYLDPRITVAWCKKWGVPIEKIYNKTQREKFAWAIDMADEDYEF

MIA PaCa-2 = test: Antiproliferative activity against human MIAPaCa2 cells after 72 hrs by MTT assay; assay type: functional, cell-based; settings: MIA PaCa-2, 72 h; for CC50: read-out: LC50 (the source's name)
MCF7 = test: Antiproliferative activity against human MCF7 cells after 72 hrs by MTT assay; assay type: functional, cell-based; settings: MCF7, 72 h; for CC50: read-out: LC50 (the source's name)
[4] = (§1) Antiproliferative activity against human WI38 cells after 72 hrs by MTT assay; assay type: cell-based, WI-38; settings: human, WI-38 cells; read-out: LC50
WI-38 = test: as §1; assay type: cell-based; settings: Homo sapiens, WI-38, 72 h
SW-620 = test: Antiproliferative activity against human SW620 cells after 72 hrs by MTT assay; assay type: functional, cell-based; settings: SW-620, 72 h; for CC50: read-out: LC50 (the source's name)
DNA [5] = test: Binding affinity to calf thymus DNA assessed as hypochromic effect at 20 uM by UV/Vis spectra analysis; assay type: nucleic-acid assay; settings: Bos taurus
DNA [6] = test: Binding affinity to calf thymus DNA assessed as change in melting temperature at 0.5 drug/DNA ratio by spectrophotometer analysis; assay type: nucleic-acid assay; settings: Bos taurus
SK-BR-3 = test: Antiproliferative activity against human SKBR3 cells after 72 hrs by MTT assay; assay type: functional, cell-based; settings: SK-BR-3, 72 h; for CC50: read-out: LC50 (the source's name)
[7] = target: T1, DNA topoisomerase 1 (Homo sapiens); test: Inhibition of human topoisomerase 1-mediated supercoiled pUC19 DNA relaxation at 1 to 50 uM after 45 mins by agarose gel electrophoresis
DNA [8] = test: Binding affinity to calf thymus DNA assessed as change in melting temperature at 0.25 drug/DNA ratio by spectrophotometer analysis; assay type: nucleic-acid assay; settings: Bos taurus

Chain of DNA topoisomerase 2-alpha (Homo sapiens) (P11388 whole entry): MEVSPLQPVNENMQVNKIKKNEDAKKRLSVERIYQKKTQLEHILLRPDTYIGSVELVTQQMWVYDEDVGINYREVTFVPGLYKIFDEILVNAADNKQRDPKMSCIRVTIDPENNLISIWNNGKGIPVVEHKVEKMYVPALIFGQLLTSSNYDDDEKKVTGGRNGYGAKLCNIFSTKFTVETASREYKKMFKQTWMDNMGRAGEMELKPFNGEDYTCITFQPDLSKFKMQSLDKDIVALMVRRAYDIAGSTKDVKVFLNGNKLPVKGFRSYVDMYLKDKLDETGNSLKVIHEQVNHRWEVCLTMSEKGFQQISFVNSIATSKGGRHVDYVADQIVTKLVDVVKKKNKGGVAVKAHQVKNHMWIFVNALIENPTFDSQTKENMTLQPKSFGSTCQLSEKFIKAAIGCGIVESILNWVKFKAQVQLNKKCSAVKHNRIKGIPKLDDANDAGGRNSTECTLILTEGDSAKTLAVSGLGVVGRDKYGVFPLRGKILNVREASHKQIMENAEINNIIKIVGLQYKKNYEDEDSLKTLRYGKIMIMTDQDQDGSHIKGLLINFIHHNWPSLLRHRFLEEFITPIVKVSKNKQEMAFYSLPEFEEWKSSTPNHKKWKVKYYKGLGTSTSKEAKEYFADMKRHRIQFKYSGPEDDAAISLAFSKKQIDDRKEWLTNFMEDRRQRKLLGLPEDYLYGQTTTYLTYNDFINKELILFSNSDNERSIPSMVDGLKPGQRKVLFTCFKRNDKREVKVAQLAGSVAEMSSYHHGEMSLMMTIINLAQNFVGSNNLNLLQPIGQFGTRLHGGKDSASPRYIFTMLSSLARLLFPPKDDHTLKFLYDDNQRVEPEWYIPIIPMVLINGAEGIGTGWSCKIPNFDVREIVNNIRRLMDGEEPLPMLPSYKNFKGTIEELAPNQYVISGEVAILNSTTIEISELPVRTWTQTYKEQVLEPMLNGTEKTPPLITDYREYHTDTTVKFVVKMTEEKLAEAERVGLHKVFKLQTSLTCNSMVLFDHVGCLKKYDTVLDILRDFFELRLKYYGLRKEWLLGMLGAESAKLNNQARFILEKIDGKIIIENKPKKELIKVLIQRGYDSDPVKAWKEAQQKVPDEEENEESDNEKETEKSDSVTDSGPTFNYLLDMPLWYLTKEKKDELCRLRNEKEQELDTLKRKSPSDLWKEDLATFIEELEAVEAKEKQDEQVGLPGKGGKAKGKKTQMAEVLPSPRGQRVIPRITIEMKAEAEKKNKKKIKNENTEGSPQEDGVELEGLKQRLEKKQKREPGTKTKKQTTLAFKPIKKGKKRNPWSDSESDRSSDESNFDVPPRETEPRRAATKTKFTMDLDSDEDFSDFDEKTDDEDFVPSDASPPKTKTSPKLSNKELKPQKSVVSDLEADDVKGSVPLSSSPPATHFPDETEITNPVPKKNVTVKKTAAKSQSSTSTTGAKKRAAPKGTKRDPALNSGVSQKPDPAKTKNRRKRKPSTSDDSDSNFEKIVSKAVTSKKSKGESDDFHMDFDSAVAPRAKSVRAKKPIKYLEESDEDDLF

| SMILES | Activity (DNA [1]) | IC50 (HeLa) [µM] | CC50 (HeLa) [µM] | inhibition [2] | inhibition [3] | IC50 (MIA PaCa-2) [µM] | CC50 (MIA PaCa-2) [µM] | IC50 (MCF7) [µM] | CC50 (MCF7) [µM] | CC50 at 72 h [4] [µM] | IC50 (WI-38) [µM] | IC50 (SW-620) [µM] | CC50 (SW-620) [µM] | Activity (DNA [5]) | ΔTm (DNA [6]) [°C] | IC50 (SK-BR-3) [µM] | CC50 (SK-BR-3) [µM] | inhibition [7] | ΔTm (DNA [8]) [°C] |
| --- | --- | --- | --- | --- | --- | --- | --- | --- | --- | --- | --- | --- | --- | --- | --- | --- | --- | --- | --- |
| N=C(N)c1ccc2nc(-c3ccc(-c4nc5ccc(C(=N)N)cc5s4)cc3)sc2c1 | inactive | 9.6 | > 100 | Active | Active | 20.4 | > 100 | 9.01 | > 100 | > 100 | 41.9 | > 100 | > 100 | Active | 3 | 8.55 | > 100 | – | – |
| N=C(N)c1ccc2nc(-c3ccccc3-c3nc4ccc(C(=N)N)cc4s3)sc2c1 | Active | 63.6 | > 100 | – | – | 44.8 | > 100 | 30.9 | > 100 | > 100 | 86.4 | > 100 | > 100 | Active | 9.8 | 86.6 | > 100 | – | – |
| c1ccc(-c2nc3ccc(C4=NCCN4)cc3s2)c(-c2nc3ccc(C4=NCCN4)cc3s2)c1 | Active | 26.8 | 76.4 | – | – | 14.6 | 72.9 | 10.1 | 71.4 | 74.3 | 8.99 | 24.7 | 81.3 | Active | 16.8 | 1.86 | 67.9 | Active | – |
| N=C(N)c1ccc2nc(-c3cccc(-c4nc5ccc(C(=N)N)cc5s4)c3)sc2c1 | Active | > 100 | > 100 | Active | Active | > 100 | > 100 | 5.34 | > 100 | 65.4 | 0.99 | 6.01 | > 100 | Active | – | 83.2 | > 100 | – | 13.7 |

From ChEMBL document CHEMBL2380196, “New anticancer active and selective phenylene-bisbenzothiazoles: synthesis, antiproliferative evaluation and DNA binding” (Eur J Med Chem, 2013)
